This data set is described as follows: solvent given as SMILES.

Regarding `Cc1cccc2[n+]1[B-](F)(F)n1c(c3cccc4cccc1c43)=N2`, the emission maximum runs as follows: (in C1CCOC1) 496 nm; (in CC#N) 495 nm; (in CCCCCC) 494 nm; (in Cc1ccccc1) 498 nm; (in ClCCl) 521 nm.

Where the note is “in ClCCl”, `CC(C)(C)c1ccc2c3ccccc3c3cncnc3c2c1` gave an emission maximum of 376 nm.

Regarding `COc1ccc(-c2c3ccc([nH]3)c3nc(c(-c4ccc(C#N)cc4)c4ccc([nH]4)c4ccc([nH]4)c(-c4ccc(OC)cc4)c4ccc2o4)C=C3)cc1`, the emission maximum reads like this: (in C1CCOC1) 736 nm; (in Cc1ccccc1) 724 nm; (in c1ccccc1) 724 nm.

In the case of `CON(C)C(=O)c1ccc(/C=C/c2ccc(/C=C/c3ccc(C(=O)N(C)OC)cc3)cc2)cc1`, the emission maximum (in c1ccccc1) was 434 nm.

Take `CC(=O)OCCN1C(=O)c2cccc3c(Oc4ccc(C=O)cc4)ccc(c23)C1=O`: the emission maximum (in ClC(Cl)Cl) is on record as 411 nm.

Under “in C1CCOC1”, `Cc1ccc(C2=C3C=C4C(=[N+]3[B-](F)(F)n3c2cc2c3-c3ccccc3C23c2ccccc2-c2ccccc23)c2ccccc2C42c3ccccc3-c3ccccc32)cc1` had an emission maximum of 642 nm.

Regarding `c1cc2ccc1CCCc1cc3c(cc1CCCc1ccc(c4nsnc14)CCC3)CCC2`, the emission maximum is, setting by setting: (in C1CCCCC1) 496 nm; (in CC#N) 534 nm; (in ClC(Cl)Cl) 531 nm.

`CCOC(=O)c1c(C=Cc2ccccc2)oc(NC2CCCCC2)c1C(=O)OCC` gave an emission maximum (in CC#N) of 460 nm.

In the case of `CC(C)[Si]1(C(C)C)c2cc(C#N)ccc2-c2ccc(N(c3ccccc3)c3ccccc3)cc21`, the emission maximum stood at 413 nm (in C1CCCCC1); 500 nm (in CC#N); 482 nm (in CCO); 436 nm (in CCOCC); 500 nm (in CS(C)=O); 470 nm (in ClCCl). Further, the emission maximum (in c1ccccc1) is given as 432 nm.

Turning to `COCCOCCOCN1C(=O)c2ccc3c(-c4ccccc4)c4c5ccc6c7c(ccc(c(-c8ccccc8)c4c4ccc(c2c34)C1=O)c75)C(=O)N(COCCOCCOC)C6=O`, the emission maximum (in ClCCl) came to 695 nm.

Take `C[Si]1(C)c2ccccc2-c2cc3c(cc21)-c1ccccc1[Si]3(C)C`: the emission maximum (in ClCCl) is recorded as 384 nm.

`CN(C)c1ccc(-c2ccc(-c3ncc4ccccn34)cc2)cc1` had an emission maximum (in ClC(Cl)Cl) of 488 nm.

In turn, `CC(=O)c1c(N[C@H](C(=O)O)C(C)C)c2ccc(N(C)C)cc2oc1=O` came in with an emission maximum (in ClCCl) of 446 nm.

As to `Cc1cc(-c2nc(-c3ccccc3)nc(-c3ccccc3)n2)ccc1-c1ccc2c(c1)C1(c3ccccc3-c3ccccc31)c1ccccc1N2c1ccccc1`, where the note is “in c1cc(-c2cccc(-n3c4ccccc4c4ccccc43)c2)cc(-n2c3ccccc3c3ccccc32)c1”, the emission maximum stood at 450 nm.

For the molecule `CC(C)(C)c1ccc2oc3nc4oc5cc(-n6c7ccccc7c7ccccc76)ccc5c4cc3c2c1`, the emission maximum (in ClC(Cl)Cl) is 396 nm.

On to `N#Cc1ccc(-c2pc3ccccc3s2)cc1` (configuration not stated), for which the emission maximum (in CC#N) was found to be 433 nm.

`O=S(=O)(c1ccccc1)c1ccc(-c2ccc3c4ccc(-c5ccc(S(=O)(=O)c6ccccc6)cc5)cc4n(-c4ccccc4)c3c2)cc1`: the emission maximum amounted to 409 nm (in CCCCCC); 437 nm (in CN(C)C=O); 434 nm (in CO); 413 nm (in Cc1ccccc1); 411 nm (in ClCCl).

`COc1ccc(N2c3sc4ccccc4c3Sc3c2sc2ccccc32)cc1` displayed an emission maximum (in ClCCl) of 549 nm.

Turning to `CCOc1cc2c(cc1/C=C/C(=C(C#N)C#N)c1ccccc1)c1ccccc1n2CC`, the emission maximum runs as follows: (in C1CCOC1) 541 nm; (in CC#N) 569 nm; (in CCO) 575 nm; (in CCOC(C)=O) 537 nm; (in CN(C)C=O) 573 nm; (in CS(C)=O) 575 nm. For the same molecule, the emission maximum came to 522 nm (in Cc1ccccc1), 550 nm (in ClC(Cl)Cl) and 558 nm (in ClCCl).

For `CN(C)c1ccc(/C=C2\CCCC2=O)cc1`, the emission maximum is listed as 488 nm (in CC#N); 474 nm (in CC(C)=O); 472 nm (in CC(C)O); 405 nm (in CCCCCC); 479 nm (in CCCCO); 479 nm (in CCCO). Moreover, the emission maximum reads like this: (in CCO) 480 nm; (in CCOC(C)=O) 448 nm; (in CCOCC) 420 nm; (in CN(C)C=O) 504 nm; (in CO) 488 nm; (in CS(C)=O) 493 nm. Further, the emission maximum stood at 424 nm (in Cc1ccccc1); 431 nm (in ClC(Cl)(Cl)Cl); 469 nm (in ClC(Cl)Cl); 472 nm (in ClCCl); 422 nm (in S=C=S); 435 nm (in c1ccccc1). In addition, the emission maximum (in c1ccncc1) is 480 nm.

With `CCCN1/C(=C/C=C/C=C/C2=[N+](CCC)c3ccccc3C2(C)C)C(C)(C)c2ccccc21`, the emission maximum by setting is: (in CO) 659 nm; (in CS(C)=O) 660 nm; (in O) 652 nm.
